Reference: article PMC8942522 (Journal of Enzyme Inhibition and Medicinal Chemistry, 2022)
“And” between values parts separate entries of the source, which are not always exact repeats. Equal values may be shown once. Read-outs that look alike come from different tables or passages of the source. Values belong to the compound of their own block, whether it stands above or below them.

Experiments:
[1] = tested on: intracellular amastigotes of T. cruzi; assay: Intracellular T. cruzi in U-2 OS cells; format: cell-based, T. cruzi (strain Y); conditions: for selectivity index [SI vs. THP-1], T. cruzi: CC50 THP-1 / EC50 T. cruzi; for selectivity index [SI vs. U-2 OS], T. cruzi: CC50 U-2 OS / EC50 T. cruzi; for EC50: read-out: Cytotoxicity EC50 T. cruzi, intracellular amastigotes in U-2 OS, 72 h
[2] = tested on: intracellular amastigotes of L. donovani; assay: Intracellular L. donovani in THP-1 cells; conditions: for selectivity index [SI vs. THP-1], L. donovani: CC50 THP-1 / EC50 L. donovani
TcTryS = target: T1, TcTryS (Trypanosoma cruzi, UniProt Q9GT49); assay: TryS inhibition assay; format: biochemical; conditions: for % TryS inhibition at 25 μM, T. cruzi: mean ± SD, NA = not active (inhibition ≤ 0.0 ± 5.0%); for IC50: IC50 T. cruzi TryS, 1 h pre-incubation, DRC, values italic and bold in Table 1
T1 sequence (Q9GT49 1-647): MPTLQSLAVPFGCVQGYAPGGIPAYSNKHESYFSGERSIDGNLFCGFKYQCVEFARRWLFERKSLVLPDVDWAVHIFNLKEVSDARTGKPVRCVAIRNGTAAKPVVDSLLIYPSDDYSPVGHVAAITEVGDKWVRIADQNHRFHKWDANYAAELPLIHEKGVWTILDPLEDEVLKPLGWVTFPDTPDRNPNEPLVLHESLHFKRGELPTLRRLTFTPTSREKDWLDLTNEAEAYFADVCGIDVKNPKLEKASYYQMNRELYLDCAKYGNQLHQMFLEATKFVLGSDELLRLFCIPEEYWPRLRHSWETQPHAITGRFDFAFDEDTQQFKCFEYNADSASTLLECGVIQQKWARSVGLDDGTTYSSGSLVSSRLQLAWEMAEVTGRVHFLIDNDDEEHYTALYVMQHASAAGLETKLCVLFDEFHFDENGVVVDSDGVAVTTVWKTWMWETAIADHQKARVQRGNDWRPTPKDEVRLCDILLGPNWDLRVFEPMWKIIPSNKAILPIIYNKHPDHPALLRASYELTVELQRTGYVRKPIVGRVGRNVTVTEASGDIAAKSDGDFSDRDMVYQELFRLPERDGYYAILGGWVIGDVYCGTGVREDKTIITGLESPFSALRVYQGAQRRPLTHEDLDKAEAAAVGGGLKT

[3] = tested on: redox biosensor hGrx1-roGFP2 in bloodstream T. b. brucei; assay: Redox assay with hGrx1-roGFP2 reporter cell line; format: cell-based, T. brucei brucei (strain 427, cell line 449)
TbTryS [4] = assay: Dilution and reduction-based; format: biochemical, Trypanosoma brucei; conditions: Ebselen 10 µM 1 h, n = 6
TbTryS [5] = assay: Time-dependent inhibition assay; format: biochemical, Trypanosoma brucei; conditions: n = 6
bloodstream T. brucei = assay: Cytotoxicity against bloodstream T. brucei; format: cell-based, T. brucei (strain 427, cell line 449); conditions: CC50 THP-1 / EC50 T. brucei
TbTryS [6] = format: biochemical, Trypanosoma brucei; conditions: 1 h, n = 8; for TryS inhibition ± SD, mass spectrometry sample B: IAM 15 mM, no Ebselen
LiTryS = target: T2, LiTryS (Leishmania infantum, UniProt A4I2Z3); assay: TryS inhibition assay; format: biochemical; conditions: mean ± SD, NA = not active (inhibition ≤ 0.0 ± 5.0%)
T2 sequence (A4I2Z3 1-652): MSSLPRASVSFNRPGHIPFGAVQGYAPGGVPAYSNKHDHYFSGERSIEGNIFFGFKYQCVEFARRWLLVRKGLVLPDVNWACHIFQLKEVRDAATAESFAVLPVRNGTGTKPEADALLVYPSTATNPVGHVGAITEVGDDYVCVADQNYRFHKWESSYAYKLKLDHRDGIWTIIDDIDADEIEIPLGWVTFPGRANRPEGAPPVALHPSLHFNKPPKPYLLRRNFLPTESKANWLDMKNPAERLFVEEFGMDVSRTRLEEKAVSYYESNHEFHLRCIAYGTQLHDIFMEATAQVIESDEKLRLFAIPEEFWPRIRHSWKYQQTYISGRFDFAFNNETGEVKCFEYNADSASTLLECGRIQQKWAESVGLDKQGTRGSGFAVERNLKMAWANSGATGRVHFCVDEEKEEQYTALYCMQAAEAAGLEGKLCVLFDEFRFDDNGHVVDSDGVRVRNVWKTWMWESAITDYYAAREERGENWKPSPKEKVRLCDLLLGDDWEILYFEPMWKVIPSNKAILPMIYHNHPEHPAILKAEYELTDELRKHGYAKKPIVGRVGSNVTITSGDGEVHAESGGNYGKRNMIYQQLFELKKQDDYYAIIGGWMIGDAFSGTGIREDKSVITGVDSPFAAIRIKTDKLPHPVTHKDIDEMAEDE

[7] = target: T3, TryS from Trypanosoma brucei (TbTryS) (Trypanosoma brucei brucei, UniProt Q586P2); assay: TryS inhibition assay; format: biochemical; conditions: mean ± SD, NA = not active (inhibition ≤ 0.0 ± 5.0%)
T3 sequence (Q586P2 1-627): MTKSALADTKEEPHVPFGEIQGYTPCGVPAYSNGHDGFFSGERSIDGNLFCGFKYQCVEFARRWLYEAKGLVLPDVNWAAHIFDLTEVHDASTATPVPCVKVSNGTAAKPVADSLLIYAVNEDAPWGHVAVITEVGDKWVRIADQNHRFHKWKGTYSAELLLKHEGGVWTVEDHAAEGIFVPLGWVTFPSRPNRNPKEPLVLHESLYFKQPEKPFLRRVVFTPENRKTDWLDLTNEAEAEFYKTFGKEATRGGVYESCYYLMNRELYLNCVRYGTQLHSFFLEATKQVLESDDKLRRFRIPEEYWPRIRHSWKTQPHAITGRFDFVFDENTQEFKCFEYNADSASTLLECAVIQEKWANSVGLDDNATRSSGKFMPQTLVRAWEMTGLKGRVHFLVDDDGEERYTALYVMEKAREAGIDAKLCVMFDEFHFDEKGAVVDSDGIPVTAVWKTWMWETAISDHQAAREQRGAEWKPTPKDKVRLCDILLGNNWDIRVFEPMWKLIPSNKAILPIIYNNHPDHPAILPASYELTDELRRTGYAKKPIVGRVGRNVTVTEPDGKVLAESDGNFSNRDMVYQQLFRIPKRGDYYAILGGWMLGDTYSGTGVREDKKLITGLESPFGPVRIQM

Compound: NC(Cc1cc(O)c(O)cc1O)C(=O)O (racemic) [Compound 3, 6-Hydroxy-DL-DOPA]
selectivity index [SI vs. THP-1], T. cruzi [1]: > 2.7
selectivity index [SI vs. U-2 OS], T. cruzi [1]: 2.7
EC50 [1]: 34 µM and ~34 µM

Compound: C[C@@H]1[C@H](O)[C@@H](C)/C=C/C=C/C=C/C=C/C=C/C=C/C=C/[C@H](O[C@@H]2O[C@H](C)[C@@H](O)[C@H](N)[C@@H]2O)C[C@@H]2O[C@](O)(C[C@@H](O)C[C@@H](O)[C@H](O)CC[C@@H](O)C[C@@H](O)CC(=O)O[C@H]1C)C[C@H](O)[C@H]2C(=O)O [Amphotericin B]
selectivity index [SI vs. THP-1], L. donovani [2]: > 22

Compound: O=C(Cn1ccnc1[N+](=O)[O-])NCc1ccccc1 [Benznidazole]
EC100 ([1]; reference drug concentration used in T. cruzi assay): 400 µM

Compound: O=C(O)c1cc[c]([Hg][Cl])cc1 [Compound 2, 4-Chloromercuribenzoic acid]
% TryS inhibition at 25 μM, T. cruzi (TcTryS): 32.0 ± 9.7%

Compound: O=c1c2ccccc2[se]n1-c1ccccc1 [Compound 5, Ebselen]
oxidation of the biosensor ([3]; 18 µM (2-fold its EC50), 4 h, reverted by DTT 1 mM 20 min): 48%
TryS inhibition ± SD, irreversible inhibition assay, sample A (TbTryS [4]; buffer exchanged, DTT 5 mM 30 min): 89 ± 8.5%
TryS inhibition ± SD, irreversible inhibition assay, sample B (TbTryS [4]; buffer exchanged, no DTT): 97.0 ± 5.0%
TryS inhibition ± SD, irreversible inhibition assay, sample C (TbTryS [4]; no buffer exchange, no DTT): 100 ± 9%
TryS inhibition ± SD, time-dependent assay, sample A (TbTryS [5]; Ebselen 5 µM pre-incubated 1 h with TbTryS, reaction started with MM): 43.6 ± 4.5%
TryS inhibition ± SD, time-dependent assay, sample C (TbTryS [5]; Ebselen 5 µM, no pre-incubation): 1.8 ± 4.2%
EC50 ([2]; Leishmania donovani, THP-1, 96 h, read-out: Cytotoxicity EC50 L. donovani): > 100 µM
selectivity index [SI vs. THP-1], T. cruzi [1]: > 36
selectivity index [SI vs. U-2 OS], T. cruzi [1]: 2.4
EC50 [1]: 2.8 ± 0.1 µM
selectivity index [SI vs. THP-1], T. brucei (bloodstream T. brucei): 11
TryS inhibition ± SD, mass spectrometry sample A (TbTryS [6]; Ebselen 20 µM): 100 ± 7%
TryS inhibition ± SD, mass spectrometry sample A (value in parenthesis) (TbTryS [6]; Ebselen 50 µM): 96 ± 8%
IC50 (TcTryS): 13.8 ± 1.5 µM

Compound: Clc1ccc(C(c2ccc(Cl)cc2)n2cc[n+](CC(OCc3ccc(Cl)cc3Cl)c3ccc(Cl)cc3Cl)c2)cc1 (stereo not shown) [Compound 7, Calmidazolium chloride]
effect on parasites at 2× EC50 in redox assay ([3]; 2× EC50, 4 h): massive cell death
selectivity index [SI vs. U-2 OS], T. cruzi [1]: 1.1
EC50 [1]: 1.6 ± 0.1 µM
IC50 (TcTryS): 2.7 ± 0.5 µM

Compound: CCCC[P+](CCCC)(CCCC)Cc1ccc(NC(=O)[C@H](Cc2ccc3ccccc3c2)NC(=NC2CCCCC2)NC2CCCCC2)cc1.Cl.[Cl-] [Compound 13, WIN 64338 hydrochloride]
selectivity index [SI vs. THP-1], L. donovani [2]: 1.9
% TryS inhibition at 25 μM, T. brucei [7]: 9.2 ± 7.4%
% TryS inhibition at 25 μM, L. infantum (LiTryS): 70.9 ± 6.8%
% TryS inhibition at 25 μM, T. cruzi (TcTryS): 25.9 ± 6.5%

Compound: O=C(CCc1c(-c2ccc(F)cc2)[nH]c2ccc(F)cc12)N1CCN(c2ccncc2)CC1 [Compound 14]
% TryS inhibition at 25 μM, L. infantum (LiTryS): 16.8 ± 17.9%
selectivity index [SI vs. THP-1], T. brucei (bloodstream T. brucei): 11
% TryS inhibition at 25 μM, T. cruzi (TcTryS): 7.1 ± 4.0%

Compound: O=C1Cc2cc(-c3csc(NCCc4cccs4)n3)cc3c2N1CCC3 [Compound 22]
% TryS inhibition at 25 μM, L. infantum (LiTryS; listed as 46, 25 µM): 74%
% TryS inhibition at 25 μM, T. cruzi (TcTryS): 12.9 ± 6.1%

Compound: NC(=O)CI [IAM, iodoacetamide]
TryS inhibition ± SD, mass spectrometry sample B (TbTryS [6]): 20 ± 9%
TryS inhibition ± SD, mass spectrometry sample B (TbTryS [6]; listed as iodoacetamide): negligible effects on TryS activity

Now from value to compound, other results behind:

inhibition at 25 µM (TcTryS; read-out: % TryS inhibition at 25 μM, T. cruzi): 5.5 ± 2.8%
Compound: O=C(O)C1=CC(=C(c2ccc(O)c(C(=O)O)c2)c2ccc(O)c(C(=O)O)c2)C=CC1=O [Compound 1, Aurintricarboxylic acid]

IC50 (TcTryS): 40 ± 1.2 µM
Compound: C[n+]1cc2c3c(ccc2c2ccc4cc5c(cc4c21)OCO5)OCO3 [Compound 6, Sanguinarine chloride]
selectivity index [SI vs. THP-1], L. donovani [2]: 2
selectivity index [SI vs. THP-1], T. cruzi [1]: 9.5
selectivity index [SI vs. U-2 OS], T. cruzi [1]: 1.3
EC50 [1]: 0.37 ± 0.11 µM

% TryS inhibition at 25 μM, L. infantum (LiTryS): 8.9 ± 5.9%
% TryS inhibition at 25 μM, T. cruzi (TcTryS): 10.9 ± 5.6%
Compound: N=C1Sc2ccccc2C2=NCCCN12 [Compound 9, PD 404,182]

% TryS inhibition at 25 μM, T. brucei [7]: 14.4 ± 8.2%
% TryS inhibition at 25 μM, T. cruzi (TcTryS): 34.7 ± 7.6%
Compound: Cl.Nc1nc(NCC2CCC(CNS(=O)(=O)c3cccc4ccccc34)CC2)nc2ccccc12 (stereo not shown) [Compound 11, CGP 71683 hydrochloride]
selectivity index [SI vs. THP-1], L. donovani [2]: 1.1

% TryS inhibition at 25 μM, L. infantum (LiTryS): 28.5 ± 11.1%
Compound: Cc1nc(C(=O)N2CCCC2c2ccc(F)c(F)c2)c(=O)[nH]c1C (stereo not shown) [Compound 18]

% TryS inhibition at 25 μM, T. cruzi (TcTryS): 13.3 ± 3.3%
Compound: CCN(CC)C(=O)COC(=O)c1c(NC(C)=O)sc2c1CCCC2 [Compound 19]
selectivity index [SI vs. THP-1], T. brucei (bloodstream T. brucei): > 4
